Assay results published in ChEMBL document CHEMBL3507680, “University of Dundee, Gates Library screen for HepG2 cell viability”.

assay: Human HepG2 cell viability assay in 384 well format; type: toxicity, cell-based; parameters: dose 125 nL, time 70.5 hour; concentration not given beside the values; conditions: HepG2 cells, read-out: Inhibition

| Compound | cytotoxicity at 70.5 h [%] |
| --- | --- |
| COc1ccc(CC(C)Nc2cccc(SC)c2)cc1 (centres undefined) | -5.87 |
| Cn1cc(C2COC3(CCN(C(=O)Cn4cccn4)CC3)C2)cn1 (centres undefined) | -2.75 |
| CS(=O)(=O)NCc1nnc2n1CCN(Cc1cccs1)C2 | -3.11 |
| CCS(=O)(=O)N1CC[C@H](OC)[C@@H]1Cc1ccncc1 | 3.22 |
| Cn1ccnc1CN1CC[C@@H](NS(C)(=O)=O)[C@@H]1Cc1cccnc1 | -2.76 |
| Cc1noc([C@H]2C[C@@H]3CCN(C(=O)C4CCOCC4)C[C@H]3O2)n1 | -1.73 |
| Cc1ccc(N2CCC3(CC2)CC(OCC(=O)N(C)C)CO3)nn1 (centres undefined) | -8.76 |
| Cc1nc(CN2C(=O)CC[C@H]3[C@@H]2CCN3C(=O)c2ccsc2)cs1 | -11.6 |
| Cn1cc2c(n1)C(COCC1CC1)CN(Cc1ccccn1)C2 (centres undefined) | 15.6 |
| Cn1ncc2c1C(COCC1CC1)CN(Cc1ccoc1)C2 (centres undefined) | -6.88 |
| Cc1cnc(N2CCn3cc(CNC(=O)CC4CC4)nc3C2)nc1 | 25.9 |
| CN(C)C(=O)NC1COC2(CCN(C(=O)Nc3ccccc3)CC2)C1 (centres undefined) | 7.49 |
| Cc1cc(C(=O)N(C)Cc2ccccc2OCC(C)C)cc(=O)[nH]1 | 15.6 |
| CC(Cn1cccn1)n1cnc2ccc(F)cc2c1=O (centres undefined) | -7.83 |
| COc1cccc(-c2cc(CN)ccc2F)c1F | -8.44 |
| CSCCC(=O)N1CCC(CCC(=O)NCC2CCCO2)CC1 (centres undefined) | -13.2 |
| CC(C)CN1CCCn2nc(CNC(=O)CN3CCOC3=O)cc2C1 | -7.41 |
| COCCN(Cc1cnn(C)c1)C(=O)C1CCN(C2CCCCC2)CC1 | -10.8 |
| CCN(Cc1cc(F)c(OC)c(Cl)c1)Cc1nc(COC)no1 | 12.1 |
| CN(Cc1ccoc1)C(=O)CN1C(=O)OC(C)(C)C1=O | -8.72 |
| CCS(=O)(=O)NCc1cccnc1N1CCCC(O)C1 (centres undefined) | -26.9 |
| CN1CC2(CCCN(Cc3ccc(Oc4ccccc4)cc3)C2)OC1=O (centres undefined) | 16.8 |

| Compound | cytotoxicity at 70.5 h [%] |
| --- | --- |
| O=c1[nH]c2ccccc2cc1CN(Cc1ccccn1)CC1CCCO1 (centres undefined) | -4.2 |
| CN1C(=O)CC(C(=O)O)C12CCN(c1ccc3cccc(Cl)c3n1)CC2 (centres undefined) | -4.5 |
| Cn1nc(CO)c2c1CCN(c1ncnc3c1CCNC3)C2 | -6.14 |
| CN(Cc1cc(-c2cccnc2)no1)C(=O)C1CCCN1S(C)(=O)=O (centres undefined) | -8.25 |
| CCn1ccnc1CN(C)c1cc(N(C)C)ncn1 | 0.0154 |
| O=C(N[C@@H]1c2ccccc2C[C@@H]1O)C1CCN(Cc2ccco2)CC1 | -0.979 |
| Fc1ccc(C(CNc2ccncn2)N2CCCC2)cc1 (centres undefined) | 12.7 |
| Cc1ccccc1NC(=O)CNC(C)COc1ccccc1 (centres undefined) | -9.44 |
| CCOC(=O)CCNC(=O)N1CCCC(CNC(=O)c2ccco2)C1 (centres undefined) | 3.18 |
| Cc1cnc(N2CCCC(c3ccccc3)C2)nc1-c1ccnn1C (centres undefined) | -8.04 |
| CC1(c2ccccc2)CCCN(Cc2cncn2C2CC2)C1 (centres undefined) | -8.21 |
| CSC(C)CCN(Cc1ccccn1)Cc1sccc1C (centres undefined) | -4.96 |
| CSc1ccccc1CN1C[C@H]2C(=O)N(CC3CC3)C[C@@]2(C(=O)O)C1 | -0.998 |
| CCCN(Cc1nc(-c2ccc(F)c(OC)c2)oc1C)CC1CCCO1 (centres undefined) | -5.99 |
| CCNc1ncc(CN2C[C@H](C3CC3)[C@@H](N)C2)cn1 | -1.95 |
| O=C(c1ccncc1Cl)N1CCN(Cc2ccco2)C(CCO)C1 (centres undefined) | 16.2 |
| O=C(O)C1(Cc2ccccc2Cl)CCN(c2ncccn2)CC1 | -10.5 |
| Cc1cc(N2CCCC(O)CC2)n2nc(C)c(C)c2n1 (centres undefined) | 1.18 |
| COc1ccc(-c2cccc(-c3ccn(CCCN(C)C)n3)c2)nn1 | -13.7 |
| COCCN(C)C[C@@H]1CN(C(=O)c2cccc(C#N)c2)C[C@@H]1CO | 12.6 |
| Cc1nc(N)ncc1C(=O)N1CCCC(CCc2ccc(F)cc2)C1 (centres undefined) | -18.8 |
| CCc1ccc(CN(C)Cc2nc(-c3cnccn3)no2)nc1 | -13.4 |

| Compound | cytotoxicity at 70.5 h [%] |
| --- | --- |
| Cc1n[nH]c(C)c1CCCNCc1cn(CCC(N)=O)c2ccccc12 | -3.31 |
| Cc1nnc(SCCCNC(=O)Cc2ccc3c(c2)OCO3)s1 | 11.5 |
| c1ccc2c(c1)CC(N1CCCC(NCc3ccc4nonc4c3)C1)C2 (centres undefined) | -17.7 |
| CC1(C)[C@H]2CC=C(CN3CCCn4nc(C(=O)O)cc4C3)[C@@H]1C2 | -19.9 |
| O=C(CCC(=O)N1CCNC(=O)C1c1cccc(F)c1)NC1CCCC1 (centres undefined) | -6.2 |
| CCCn1ncc(CN(CCN(C)C)Cc2ccsc2)c1C | 31.8 |
| CC(=O)N[C@@H]1CN(c2nc(CO)cs2)C[C@H]1c1ccc(C)o1 | -12.8 |
| CC(C)=CCN1C[C@H]2CC[C@@H]1CN(C(=O)CSc1ccncc1)C2 | -0.143 |
| c1ccc(C2CCN(c3ncnc4c3CCNC4)CC2)cc1 | -4.79 |
| Cc1cc(C(F)(F)F)cc(N2CCN(Cc3ccccc3)CC(O)C2)n1 (centres undefined) | 3.5 |
| CC(C)(C)c1oc(C(N)=O)cc1CN1CCCCC1CN1CCOCC1 (centres undefined) | 39.9 |
| COc1ccccc1[C@@H]1CN(Cc2c(C)noc2C)C[C@H]1C(=O)O | -8.62 |
| COCCC1(C(=O)O)CCCN(C(=O)c2cc(Cl)ccc2F)C1 (centres undefined) | -5.3 |
| CC(C)S(=O)(=O)N1CCCC(c2nnc(Cn3ccnc3)n2C)C1 (centres undefined) | -7.74 |
| CN(C)CC1(O)CCCN(C(=O)CCn2cc(Cl)cn2)C1 (centres undefined) | 26.8 |
| CC(c1cccs1)N(C)Cc1cnc(-c2ccccn2)nc1 (centres undefined) | 3.52 |
| CCCc1nc(CN(CC)C(=O)c2ccc(S(C)(=O)=O)cc2)no1 | -8.4 |
| Cc1nc(CCN(C)C(=O)CN2C(=O)OC[C@@H]2c2ccccc2)no1 | -4.02 |
| Fc1ccc(-n2cccn2)c(CN2CCCCC2CCn2ccnc2)c1 (centres undefined) | 1.83 |
| COc1nccnc1N1C[C@@H]2CC[C@H](C1)N(CC=C(C)C)C2=O | -20.8 |
| CCC(C(=O)NC1(C(N)=O)CCCC1)n1cccn1 (centres undefined) | -13.8 |
| CCN(Cc1cnc(-c2ccccn2)nc1)C1CCS(=O)(=O)C1 (centres undefined) | 5 |

| Compound | cytotoxicity at 70.5 h [%] |
| --- | --- |
| COCCNCC1(O)CCCN(Cc2ccc(F)c(F)c2)C1=O (centres undefined) | -2.23 |
| Cn1ccnc1-c1ccc(NCC2COc3ccccc3O2)nn1 (centres undefined) | 1.13 |
| COC[C@]1(O)CCN(C2CCN(c3ccc(Cl)cc3)CC2)CC1(C)C | 22.5 |
| CCN1CC(c2ccccc2)CC2(CCN(Cc3ncc[nH]3)CC2)C1 (centres undefined) | -9.77 |
| CC(=O)N1CCN(Cc2c(C)ccc3ccccc23)CC(O)C1 (centres undefined) | -6.49 |
| CCOc1ccccc1C(C(=O)O)N(C)Cc1nnc(C)o1 (centres undefined) | -2.69 |
| Cc1cnc(N2CCCC(c3ccccc3)C2)nc1-c1ncnn1C (centres undefined) | -9.97 |
| O=C(CCN1CCOC(C(F)(F)F)C1)NCc1ccc(Cl)cc1 (centres undefined) | -0.312 |
| COc1nc(C)c(C(=O)N2CCC(C(O)Cc3ccccc3)CC2)s1 (centres undefined) | -11.5 |
| N#Cc1ccccc1C(=O)N1C[C@@H](CN2CCCCC2)[C@@H](CO)C1 | -5.21 |
| CC(=O)NCCNC(=O)c1cnc2c(c1)nc(-c1ccccc1Cl)n2C | -6 |
| Cc1c[nH]c(CN2CCN(C)C3(CCC(=O)N(CC4CC4)CC3)C2)n1 (centres undefined) | 19.9 |
| Cc1ccc(OC2(C(=O)NC(C)Cc3ccncc3)CCNCC2)cc1 (centres undefined) | -6.8 |
| CN(CCc1ccccn1)C(=O)CCC1CCCN(S(C)(=O)=O)C1 (centres undefined) | 3.47 |
| Cc1nc(O)cc(C2CCN(C(=O)c3[nH]nc4c3CC(C)CC4)CC2)n1 (centres undefined) | -11 |
| COC(=O)CNc1ccc(-c2nc(Cc3ccc(OC)cc3)no2)cn1 | -10.8 |
| COC(=O)c1cc(CN2CCN(c3ncccc3C)CC2)ccc1O | 39.9 |
| Cc1cccc(-n2nc(CC(C)C)nc2CCC(=O)N(C)C)c1 | 0.846 |
| CC(C)n1ccnc1C1CCCN(Cc2ccc(F)c(F)c2)C1 (centres undefined) | 38 |
| CCc1nccn1CCCNC(=O)c1cnn(-c2ccccc2OC)c1 | -5.05 |
| O=C1CCC2(CCOC2)CN1CCCOc1cccnc1 (centres undefined) | 0.321 |
| c1cnc(NCc2cncc3c2CCN(Cc2cccs2)C3)nc1 | -10.8 |

| Compound | cytotoxicity at 70.5 h [%] |
| --- | --- |
| O=C([C@H]1C[C@H]2OCC[C@H]2N(CCc2ccccc2)C1)N1CCCCO1 | -6.32 |
| CCc1ccc(CN2CCC3(CC2)CC(N2CCN(C)CC2)CO3)cc1 (centres undefined) | 7.28 |
| Cn1cc(C[C@H]2[C@H](O)CCN2CC2CC2)cn1 | 6.74 |
| CC(C)Nc1ncnc2c1CCN(C(=O)c1ccncc1F)CC2 | 5.41 |
| CN(C)C(=O)N1CCC2(CCCN(Cc3cnn(C)c3)C2)C1 (centres undefined) | 6.69 |
| O=C(c1ccc[nH]1)N1CCc2c(COCC3CC3)cncc2C1 | -4.79 |
| Cc1nc(CN2C[C@@H]3CN(C(=O)C4CC4)C[C@@H]3C2=O)cs1 | 27.3 |
| Cc1nc(CN2C[C@@H]3CN(C(=O)c4cccn4C)C[C@@H]3C2=O)cs1 | -3.56 |
| O=C1CO[C@@H]2CN(CC3CCOCC3)C[C@H]2N1CC1CC1 | -2.81 |
| CN(C)C(=O)N1CCN(Cc2cnn(C)c2)CC2(CNC(=O)C2)C1 (centres undefined) | -7.42 |
| Cc1nc(CN2CCc3ncnc(-c4ccc(F)cc4)c3CC2)cs1 | -4.74 |
| Cc1nc(CN2C[C@@H]3CN(C(=O)c4ccnnc4)C[C@@H]3C2=O)cs1 | -3.08 |
| O=C1CC(c2ccncc2)C2(CCN(C(=O)c3ccc[nH]3)CC2)N1 (centres undefined) | 23.7 |
| CN(C)CCNC(=O)c1cc(-c2cnc(N3CCCC3)nc2)cn1C | 21.5 |
| Cc1cccc(C(=O)N2C[C@@H]3CCN(c4cccnc4)C[C@@H]3C2)c1 | 31.2 |
| Cc1cccc(N2CC[C@@H]3CN(C(=O)c4ccco4)CCO[C@@H]3C2)n1 | -13.8 |
| O=C(c1ccc(F)cc1)N1CCN2C[C@H](OCc3ccccn3)C[C@H]2C1 | -6.75 |
| Fc1ccc(CNCC2OCCc3cn(CC4CC4)nc32)cc1 (centres undefined) | 5.14 |
| CCN1C[C@H]2[C@@H](C1)N(S(=O)(=O)c1cccnc1)CC[C@H]2OC | 45.6 |
| CNC(=O)C1Cn2ccnc2C2(CCN(Cc3cccnc3)CC2)O1 (centres undefined) | 2.48 |
| CN1CCN(Cc2cnc3n2CCN(Cc2cccs2)C3)CC1 | 3.18 |
